This is an account of results in patent US20140242609A1, “Diagnosis and treatment of kidney stones, methods and compositions therefor” (Washington University, priority 2013, published 2014).

The structures appear in SMILES notation.

The conditions of series [1]: cited from earlier work.
Series [2] has as its system PTH. The series is described as follows: plasma PTH levels after NPS2143 or cinacalcet. As to conditions: for Plasma PTH level, course: 8 hrs versus 2 hr; for PTH response: cyclosporine-A pre-treated. It counts as in vivo, mouse.
A short description of series [3]: urinary Ca++ and Mg++ levels (ratios to creatinine) in spot urine collections. To be noted: 5 mg/kg BW−1. It counts as in vivo, mouse. How it is done: Mice were housed individually in metabolic cages (Harvard Apparatus) with free access to water and food for 24 hr. Urine was collected under mineral oil. The plasma and urine Ca^++ and Mg^++ levels were determined with atomic flame absorption spectrophotometer (PerkinElmer). The creatinine levels were measured with an enzymatic method that was independent of plasma chromogens. (Gong Y, et al., 2013) The fractional excretion of electrolytes was calculated using the following equation FEion=V×Uion/(GFR×Pion), where GFR was calculated according to the clearance rate of creatinine (GFR=V×Ucreatinine/Pcreatinine).
In these experiments, the inventors gave wild-type C57BL/6 mice SAHA treatments at 5 mg/kg BW^−1 and traced urinary Ca^++ and Mg^++ levels (as ratios to creatinine) from 4 hr to 12 hr in spot urine collections. Consistent with the downregulation of CLDN14 gene expression at 4 hrs, the urinary excretion of Ca^++ and Mg^++ was reduced by 47% and 40% respectively (p<0.01, n=5 versus vehicle, FIG. 19A-B).

In series [4] the test system is CLDN16, CLDN19, TRPV5, TRPM6, NKCC2, ROMK, TSC, Klotho and VDR. The series is described as follows: gene expression of renal ion transporters in SAHA treated mouse kidneys (real-time PCR). It counts as in vivo. As to conditions: SAHA versus vehicle. An excerpt: FIG. 25 illustrates gene expression analyses of renal ion transporters in SAHA versus vehicle treated mouse kidneys by real-time PCR. Values are shown as fold ratios relative to the vehicle level (as mean±SEM; n=5).
Total RNA including microRNA was extracted using Trizol (Invitrogen). Cellular mRNA was reverse transcribed using the Superscript-III kit (Invitrogen), followed by real-time PCR amplification using SYBR Green PCR Master Mix (Bio-Rad) and Eppendorf Realplex2S system. The design of claudin-14 primers was described before by Gong et al., 2012. The design of pri-miRNA primers and ChIP primers was according to Gong et al., 2013. Results were expressed as 2^−ΔCt values with ΔCT=Ctgene−Ctβ-actin.

Series [5] is described as follows: 24 hr urinalysis in metabolic cages, plasma and urine electrolytes. It counts as in vivo, mouse. The protocol: Age (9-10 weeks old) and sex (male) matched wild-type and CLDN14 KO mice were housed individually in metabolic cages (Harvard Apparatus) with free access to water and food for 24 hr. Urine was collected under mineral oil. The plasma and urine Ca^++ and Mg^2+ levels were determined with atomic flame absorption spectrophotometer (PerkinElmer). The plasma (P) and urine (U) electrolyte levels were determined with the Roche Cobas clinical analyzer (Roche Diagnostics). […] The fractional excretion of electrolytes was calculated using the following equation: FEion=V×Uion/(GFR×Pion), where GFR was calculated according to the clearance rate of creatinine (GFR=V×Ucreatinine/Pcreatinine).
Mice were housed individually in metabolic cages (Harvard Apparatus) with free access to water and food for 24 hr. Urine was collected under mineral oil. The plasma and urine Ca^++ and Mg^++ levels were determined with atomic flame absorption spectrophotometer (PerkinElmer). The creatinine levels were measured with an enzymatic method that was independent of plasma chromogens.

Series [6] can be described thus: circulating hormonal levels in SAHA treated mice (ELISA). As to conditions: SAHA treatments versus vehicle. The class given is in vivo, mouse. The protocol: FIG. 24 illustrates circulating hormonal levels in SAHA versus vehicle treated mouse kidneys. Serum PTH (A), 1,25-(OH)2-vitD3 (B) and FGF23 (C) levels were measured with ELISA and shown as mean±SEM, n=5.
(In an ELISA, binding on a coated surface is turned into a signal by an enzyme label.)

Where [7] appears, read: WT, at both 2 hrs and 8 hrs, 30 mg/kg BW−1, versus vehicle.
[8] abbreviates: WT pre-treated with furosemide 40 mg/kg BW−1 per day, Veh + Furo = furosemide alone.

Turning to `C[C@@H](NCCCc1cccc(C(F)(F)F)c1)c1cccc2ccccc12` [cinacalcet], in series [1] (oral), the “time to maximal serum concentration after oral administration” value was 1.5 to 3 h. The “half-life of absorbed cinacalcet” value in series [1] (serum) was 30 to 40 h. Further, the “Plasma PTH level, course” value in series [2] (WT) is given as “continued to suppress plasma PTH levels”. Further, the “plasma PTH levels” value is reported as “significantly affected” in series [2] (setting [7]) and “suppressed PTH levels” in series [2] (claudin-14 KO animals, 2 hrs). Further, the PTH response result in series [2] (2 hrs) is reported as “intact PTH response”.
Turning to `CC(C)(Cc1ccc2ccccc2c1)NC[C@@H](O)COc1cccc(Cl)c1C#N` [NPS2143], in series [2] (WT), the “Plasma PTH level, course” value was “started to return towards baseline”. The “plasma PTH levels” value in series [2] (setting [7]) is “significantly affected”; in series [2] (claudin-14 KO animals, 2 hrs), “significant increases in plasma PTH levels”. In series [2] (2 hrs), the PTH response result was “intact PTH response”.
Turning to `O=C(CCCCCCC(=O)Nc1ccccc1)NO` [SAHA, Suberanilohydroxamic acid], in series [3] (4 hrs, versus vehicle), the “urinary excretion of Ca++, reduction” value turned out to be 47% and the “urinary excretion of Mg++, reduction” value was determined as 40%. The “effects on urinary Ca++ and Mg++ levels” value in series [3] (after 12 hrs) is “completely lost”. In series [3] (by 8 hrs), the “urinary Ca++ excretion” value is reported as “hypocalciuria was pronounced” and the urinary magnesium excretion entry is given as “recovered to the vehicle level”. Moreover, the “expression levels of other major Ca++/Mg++ transporters from the kidney” value in series [4] is “nor did the inventors find any significant change”. Also, in series [5] (CLDN14 KO, same SAHA regimen), the ECa turned out to be 1.20 ± 0.24 ug/24 hr · g, the EMg is reported as 6.50 ± 0.55 ug/24 hr · g, the FECa came to 0.45 ± 0.07% and the FEMg is on record as 9.90 ± 0.83%. In series [5] (CLDN14 KO, same SAHA regimen), this compound displayed a PCa of 11.13 ± 0.34 mg/dL and a PMg of 2.76 ± 0.05 mg/dL. For the same compound, in series [5] (setting [8]), the ECa is given as 3.37 ± 0.75 ug/24 hr · g, the EMg is listed as 8.34 ± 2.15 ug/24 hr · g, the FECa came to 1.97 ± 0.38% and the FEMg came out at 22.50 ± 6.40%. Moreover, in series [5] (setting [8]), the PCa is on record as 9.95 ± 0.41 mg/dL and the PMg came out at 2.20 ± 0.06 mg/dL. Moreover, in series [5] (WT, SAHA 10 mg/kg BW−1 per day), the ECa is reported as 0.72 ± 0.26^□ ug/24 hr · g, the EMg is given as 3.16 ± 0.80^□□ ug/24 hr · g, the FECa is 0.27 ± 0.08^□□ % and the FEMg was 6.06 ± 1.71^□□ %. Also, in series [5] (WT, SAHA 10 mg/kg BW−1 per day), the PCa is reported as 11.38 ± 0.44^□ mg/dL and the PMg is reported as 2.71 ± 0.12^□ mg/dL. Moreover, in series [5] (chronic SAHA treatment), the “effect of chronic treatment on calcemia” value is listed as “mild hypercalcemia”. Besides, in series [6], the “circulating 1,25-(OH)2-vitD3 levels” value is recorded as “None of these hormones changed”, the “circulating FGF23 levels” value is given as “None of these hormones changed” and the “circulating PTH levels” value is reported as “None of these hormones changed”.
